From US20090118135A1, “METHODS AND COMPOUNDS FOR REGULATING APOPTOSIS” (The Burnham Institute, priority 2007, published 2009)
Values joined by “and” are separate entries in the source; they are usually repeats but may differ in a detail not shown here. Identical values can stand only once. “Also recorded” adds a separate entry of the source. Like-named read-outs stand apart in the source and are kept apart here. Where a SMILES comes first, the peptide text is derived from it. [ ]: non-standard residue; d: D form. Ahx = NCCCCCC(=O)O

What was measured:
GST-Bcl-2 = GST-Bcl-2 (Homo sapiens, UniProt P10415); test: Bcl-2/FITC-TR3 fluorescence polarization competition assay (PBS + Tween-20); details: for displacement of FITC-TR3-r8 from Bcl-2: result in words; for Bcl-2 H Coefficient: Hill coefficient of Bcl-2 dose-response curve
GST-Hsp70 = GST-Hsp70 (Homo sapiens, UniProt P0DMV8); test: FITC-ATP/GST-Hsp70 fluorescence polarization counter-screen; assay type: binding; details: HSP/FITC-ATP counter screen
Protocol: Dose-response curves were then generated (fluorescent compounds were eliminated), followed by counter-screening using a biologically unrelated FPA (GST-Hsp70/FITC-ATP).
A number of assays were then performed to eliminate non-specific or irreproducible hits (FIG. 21). […] Second, compound dose-response curves were generated using the fluorescence polarization assay. […] Finally, 1D-NMR was used to test the compounds for binding to GST-Bcl-B versus GST (as a negative control) (FIG. 22).

GST-Bcl-B [1] = target: T1, GST-Bcl-B (Homo sapiens, UniProt Q9HD36); test: Bcl-B/FITC-TR3-r8 fluorescence polarization competition (displacement) assay, HTS and dose-response; details: for Bcl-B H Coefficient: Hill coefficient of Bcl-B dose-response curve; for displacement of FITC-TR3-r8 from GST-Bcl-B: result in words
T1 sequence (Q9HD36 1-182 limits assumed): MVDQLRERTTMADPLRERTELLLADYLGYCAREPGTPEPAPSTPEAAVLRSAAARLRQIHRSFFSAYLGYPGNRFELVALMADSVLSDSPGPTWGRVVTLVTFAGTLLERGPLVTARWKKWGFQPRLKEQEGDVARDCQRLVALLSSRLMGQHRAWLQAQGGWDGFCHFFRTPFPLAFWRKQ

GST-Bcl-B [2] = target: T1, GST-Bcl-B; test: biochemical
[3] = system: HeLa Tet-On-Bcl-B (HTO2) cells; test: Cell viability (ATPlite) in HeLa Tet-On-Bcl-B cells with or without doxycycline; assay type: cell-based; details: 24 h, read-out: concentration required to reduce HeLa Tet-On-Bcl-B cell viability by 50%
Protocol: FIG. 24A is a photograph of a blot wherein HeLa Tet-On (HTO1) and HeLa Tet-On-Bcl-B (HTO2) cells were treated with or without doxycycline (dox) for 24 h to induce their tetracycline-responsive promoters. Protein lysates were collected, and immunoblotting was used to analyze Bcl-B and Hsc70 (for loading control) expression. In FIG. 24B the cells were treated with or without doxycycline for 24 h, and then with staurosporine at the indicated concentrations for 24 h. Cell viability was measured using ATPlite. In FIG. 24C HeLa Tet-On-Bcl-B (HTO2) cells were treated with or without doxacycline as above. Compounds were then added at the indicated concentrations, and cell viability was measured 24 h later using ATPlite. The data shown represent mean±standard deviation (n=3).
HeLa Tet-On-Bcl-B cells were generated by stably transfecting the HeLa Tet-On cell line (Clontech, Mountain View, Calif.) with a pTRE2hyg vector (Clontech) containing the Bcl-B gene, using lipofectAMINE PLUS (Invitrogen, Carlsbad, Calif.). Briefly, cells were seeded overnight and transfected at 50% confluency for 3 h. After 24 h, the cells were re-seeded at <10% confluence and cultured in media (DMEM with 10% Tet System Approved FBS (Clontech)) containing G418 (100 μg/mL) and hygromycin B (300 μg/mL) for pTet-On and pTRE2hyg/Bcl-B plasmid maintenance, respectively. Positive foci resistant to both antibiotics were expanded. Colonies were then cultured in the presence or absence of doxycycline (Clontech, 1 μg/mL) for 16 h, and induced Bcl-B expression was confirmed by Western blot analysis. A previously developed polyclonal Bcl-B antibody^17 and an Hsc70 antibody (for protein concentration comparison; Santa Cruz Biotechnology, Santa Cruz, Calif.) were used.
Cells were seeded in 96-well plates at 5,000 cells/well in 100 μL of growth medium and allowed to incubate for 24 h. Afterwards, cells were incubated in the presence or absence of doxycycline (1 μg/mL) for another 24 h (to induce Bcl-B expression). Compounds were then added, as indicated, in a volume of 5 μL. The next day, cell viability was measured using the ATPlite Luminescence ATP Detection System (PerkinElmer, Waltham, Mass.) according to the manufacturer's specifications.

Chain of GST-Bcl-2 (P10415 1-218 limits assumed): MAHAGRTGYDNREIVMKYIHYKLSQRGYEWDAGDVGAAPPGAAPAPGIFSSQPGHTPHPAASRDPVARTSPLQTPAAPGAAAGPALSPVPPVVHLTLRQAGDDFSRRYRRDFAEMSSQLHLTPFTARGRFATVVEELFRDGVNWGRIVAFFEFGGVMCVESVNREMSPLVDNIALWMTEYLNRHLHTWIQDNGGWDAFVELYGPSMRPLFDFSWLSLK
Chain of GST-Hsp70 (P0DMV8 whole entry): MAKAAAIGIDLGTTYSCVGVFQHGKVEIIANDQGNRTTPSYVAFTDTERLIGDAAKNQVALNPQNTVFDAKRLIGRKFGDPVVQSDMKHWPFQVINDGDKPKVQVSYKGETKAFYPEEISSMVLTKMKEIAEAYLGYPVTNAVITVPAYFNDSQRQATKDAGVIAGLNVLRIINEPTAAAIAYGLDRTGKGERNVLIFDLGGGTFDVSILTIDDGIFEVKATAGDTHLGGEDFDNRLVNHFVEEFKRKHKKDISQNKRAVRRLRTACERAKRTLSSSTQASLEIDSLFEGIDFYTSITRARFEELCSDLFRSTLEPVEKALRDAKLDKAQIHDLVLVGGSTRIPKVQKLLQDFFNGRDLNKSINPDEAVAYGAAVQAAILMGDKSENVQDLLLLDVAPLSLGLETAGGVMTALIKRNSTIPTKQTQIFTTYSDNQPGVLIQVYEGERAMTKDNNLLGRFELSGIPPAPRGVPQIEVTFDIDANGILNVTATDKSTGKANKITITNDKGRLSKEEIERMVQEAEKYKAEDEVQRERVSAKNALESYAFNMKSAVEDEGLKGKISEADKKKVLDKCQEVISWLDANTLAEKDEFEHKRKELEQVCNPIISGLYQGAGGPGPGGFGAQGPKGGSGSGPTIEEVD

SMILES	Bcl-2 H Coefficient (GST-Bcl-2)	Bcl-B H Coefficient (GST-Bcl-B [1])	IC50 (GST-Bcl-B [2])	also measured
CN(C)CC[C@H](CSc1ccccc1)Nc1ccc(S(=O)(=O)NC(=O)c2ccc(N3CCN(Cc4ccccc4-c4ccc(Cl)cc4)CC3)cc2)cc1[N+](=O)[O-] [ABT-737, reference compound]	–	–	–	displacement of FITC-TR3-r8 from Bcl-2 (GST-Bcl-2): failed to block FITC-TR3-9-r8 peptide binding to Bcl-2; also recorded: did not effectively displace FITC-TR3-r8 from Bcl-2
Nc1ccc(Oc2ccc(N)c(N)c2)cc1N [Compound 5152592]	1.428	1.303	–	HSP70 IC50 (Hill) (GST-Hsp70): High; IC50 (GST-Bcl-B [1]; Bcl-B IC50 (g/L)): 5.37 µM; IC50 (GST-Bcl-B [1]; Bcl-B IC50 (uM)): 5.37 µM
OC1=c2ccccc2=C(O)C12N=Nc1nnc(O)n1N2 [Compound 5627952]	1.575	0.9192	25.2 µM and 23.8 µM	–
O=C(COc1ccc(Cl)cc1Cl)Nc1nnc(-c2ccco2)[nH]1 [Compound 5632817]	1.078	0.9962	17.9 µM	–
Oc1ccc(Nc2nc(-c3ccccn3)cs2)cc1 [Compound 5662807]	1.241	1.182	3.69 µM	–
Cc1ccc(C)n1-c1ccc(Cl)cc1C(=O)O [Compound 5950160]	1.457	0.9279	0.942 µM	HSP70 IC50 (Hill) (GST-Hsp70): high
Cc1ccc(C)n1-c1cc(C(=O)O)cc(C(=O)O)c1 [Compound 5950689]	0.6186	1.032	0.542 µM	–
COc1cc(N)ccc1-n1c(C)ccc1C [Compound 5953790]	–	2.719	32.9 µM	–
Cc1ccc(C)n1-c1ccc(OCC(=O)O)cc1 [Compound 5988031]	–	0.6411	8.75 µM	–
CC1=C(C#N)c2nc(N)c(C#N)c(C)c2/C1=C/c1ccc(-c2ccc(C(=O)O)c(Cl)c2)o1 [Compound 6025233]	3.081	1.206	1.65 µM	HSP70 IC50 (Hill) (GST-Hsp70): high
CC(=O)c1cc(C#N)c(SCC(=O)c2ccc(O)c(O)c2)nc1C [Compound 6033363]	–	2.08	11 µM	–
Nc1n[nH]c2ncc3cc4ccccc4nc3c12 [Compound 6051011]	–	2.36	3.74 µM and 2.89 µM	–
CN1CCN(CN2C(=O)/C(=N\NC(=O)CSc3nc4ccccc4s3)c3ccccc32)CC1 [Compound 6062681]	–	2.531	12.9 µM	–
Cc1ccc(-c2cc(C(=O)O)c3cc(Br)ccc3n2)o1 [Compound 6131498]	–	1.896	16.5 µM	–
O=C(O[C@@H]1Cc2c(O)cc(O)cc2O[C@@H]1c1cc(O)c(O)c(O)c1)c1cc(O)c(O)c(O)c1 [EGCG, epigallecatechin]	–	–	–	IC50 ([3]; in the absence of Bcl-B (without doxycycline)): 79 µM; IC50 ([3]; in the presence of Bcl-B (with doxycycline)): ~93 µM; displacement of FITC-TR3-r8 from GST-Bcl-B (GST-Bcl-B [1]): none of these reagents displaced FITC-TR3-r8
CC(=O)N[C@@H](Cc1ccccc1)C(=O)N[C@@H](CO)C(=O)N[C@@H](CCCNC(=N)N)C(=O)N[C@@H](CO)C(=O)N[C@@H](CC(C)C)C(=O)N[C@@H](Cc1c[nH]cn1)C(=O)N[C@@H](CO)C(=O)N[C@@H](CC(C)C)C(=O)N[C@@H](CC(C)C)C(=O)NCC(=O)NCCCCCC(=O)N[C@H](CCCNC(=N)N)C(=O)N[C@H](CCCNC(=N)N)C(=O)N[C@H](CCCNC(=N)N)C(=O)N[C@H](CCCNC(=N)N)C(=O)N[C@H](CCCNC(=N)N)C(=O)N[C@H](CCCNC(=N)N)C(=O)N[C@H](CCCNC(=N)N)C(=O)N[C@H](CCCNC(=N)N)C(N)=O [TR3-r8, reference compound] (Ac-FSRSLHSLLG[Ahx][dR][dR][dR][dR][dR][dR][dR][dR]-NH2)	–	–	–	displacement of FITC-TR3-r8 from Bcl-2 (GST-Bcl-2): effectively competed for binding; EC50 (GST-Bcl-B [1]): 0.0828 µM; displacement of FITC-TR3-r8 from GST-Bcl-B (GST-Bcl-B [1]): displaced FITC-TR3-r8 as expected

Now from value to compound, other results behind:

Bcl-2 H Coefficient (GST-Bcl-2)	Bcl-B H Coefficient (GST-Bcl-B [1])	IC50 (GST-Bcl-B [2])	SMILES	also measured
–	0.939	14.2 µM	Clc1ccc(C2C=C(c3ccccc3)Nc3ncnn32)cc1 (centres unmarked) [Compound 5223675]	HSP70 IC50 (Hill) (GST-Hsp70): high
2.956	1.13	1.03 µM	O=C(O)C1Nc2c(Cl)cc(Cl)cc2C2C=CCC12 (centres unmarked) [Compound 5736518]	IC50 (GST-Hsp70; read-out: HSP70 IC50 (Hill) (converted)): 37 µM
–	2.774	4.13 µM	O=C(O)C1C2CC=CC2c2cc(Oc3ccccc3)cc3c2N1CC1CC=CC31 (centres unmarked) [Compound 5840196]	–
–	2.481	3.92 µM	O=C(O)c1ccc([N+](=O)[O-])c2c1NC(c1ccccc1)C1CC=CC21 (centres unmarked) [Compound 5853021]	–
–	0.6738	9.64 µM	O=C(O)c1cccc(-c2ccc(/C=N/Nc3ccc([N+](=O)[O-])cn3)o2)c1 [Compound 5908920]	–
–	1.761	4.95 µM	O=C(O)C1Nc2c(C(=O)N3CCCC3)cccc2C2C=CCC12 (centres unmarked) [Compound 5947449]	–
1.653	0.9562	9.96 µM	Cc1ccc(C)n1-c1ccc(C(=O)O)c(Cl)c1 [Compound 5956338]	–
–	2.868	0.621 µM	Cc1ccc(C)n1-c1ccccc1C(=O)O [Compound 5959185]	–
–	1.406	20.7 µM	Cc1cc(I)c2c(c1)C1C=CCC1C(C(=O)O)N2 (centres unmarked) [Compound 6048134]	–
–	2.809	2.57 µM and 2.67 µM	O=C(O)c1cccc2c1NC(c1cccc(Cl)c1Cl)C1CC=CC21 (centres unmarked) [Compound 6048905]	–
